{"source": "paper PMC7235904", "about": "“Is Blood a Good Indicator for Detecting Antimicrobials in Meat? Evidence for the Development of In Vivo Surveillance Methods” (Antibiotics, 2020)", "key": {"[1]": {"assay": "Antimicrobial residue concentration and depletion in blood (serum) of treated pigs within the withdrawal period (LC-MS/MS)", "type": "in vivo", "excerpt": "To obtain samples containing antimicrobial compounds administered in vivo, 93 piglets (62 female, 31 male) with an average weight of 43.00 ± 12.79 kg were provided at treatment onset. These piglets were untreated animals that remained on the premises of the Faculty of Veterinary Sciences at the University of Zaragoza (Zaragoza, Spain) 40 days before administration of the compounds. Both during the acclimatization and withdrawal periods, animals were fed ad libitum with a special mixed feed that was free of antibiotics ([…], Spain), and water was provided from a separated, controlled water circuit. Piglets were raised in separate pens depending on the antibiotic administrated. After administration, animals were slaughtered at preset intervals within the withdrawal period in order to obtain samples containing different antimicrobial concentrations above and below the MRLs for muscle. Figure S1 indicates the slaughter days and the withdrawal periods set by the manufacturer for each antimicrobial compound administered. Between one and three piglets were slaughtered on the same day post-administration. The day of slaughter was calculated from the first day after the last antimicrobial treatment dose. […] Apart from samples containing antimicrobial compounds administered in vivo, and as a part of the sample bank, 15 of the 93 piglets were slaughtered after the acclimatization period and before treatment onset. Animals were stunned and slaughtered following the guidelines established by European Council Regulation (EC) No. 1099/2009 [39] regarding the protection of animals at the time of slaughter or killing. A penetrative captive bolt gun was used to stun the pigs, positioning it firmly against the skin, in the middle of the forehead, 2 cm above the line of the eyes, aiming towards the tail. This was followed by complete exsanguination carried out by incision in the jugular furrow at the base of the neck to sever all the major blood vessels arising from the heart. The samples obtained from them were used as blank samples for analysis. Blood was collected not only from slaughtered animals, but also from living animals on each day of slaughter. […] For quinolones in blood serum samples, a LC-MS/MS method was set up using a SCIEX Exion LC coupled to TripleQuad 6500+ triple quadrupole detector equipped with an Acquity Ultra Performance Liquid Chromatography Ethylene Bridged Hybrid (UPLC BEH) C18 (1.7 μm, 2.1 × 100 mm) column. Mobile phase consisted of eluent A: 0.1% formic acid in water, and eluent B: 0.1% formic acid in acetonitrile at a flow rate of 0.4 mL/min. […] Injected volume was 5 μL. Analytes were detected using positive electrospray ionization (ESI+) in multiple reaction monitoring (MRM) mode, and two transitions were monitored for each compound of interest (Table S4). […] The same mobile phase and gradient conditions as in SCIEX instruments were applied. […] Two ESI+ MRM transitions were monitored for each compound (Table S5). […] Results were represented as the mean ± standard deviation using the PRISM program (GraphPad Software, Inc., San Diego, USA). The rates of elimination (λz) of antibiotics from muscle and blood were determined by regression analysis. The corresponding half-lives of elimination were calculated according to the following equation: Half-life of elimination."}, "[2]": {"assay": "Relationship between concentrations detected in paired blood and muscle samples", "type": "in vivo, pigs", "conditions": "paired pig blood and muscle samples", "procedure": "After administration, animals were slaughtered at preset intervals within the withdrawal period in order to obtain samples containing different antimicrobial concentrations above and below the MRLs for muscle. Figure S1 indicates the slaughter days and the withdrawal periods set by the manufacturer for each antimicrobial compound administered. Between one and three piglets were slaughtered on the same day post-administration. The day of slaughter was calculated from the first day after the last antimicrobial treatment dose. […] Apart from samples containing antimicrobial compounds administered in vivo, and as a part of the sample bank, 15 of the 93 piglets were slaughtered after the acclimatization period and before treatment onset. Animals were stunned and slaughtered following the guidelines established by European Council Regulation (EC) No. 1099/2009 [39] regarding the protection of animals at the time of slaughter or killing. A penetrative captive bolt gun was used to stun the pigs, positioning it firmly against the skin, in the middle of the forehead, 2 cm above the line of the eyes, aiming towards the tail. […]\nData were analyzed and submitted to comparison of averages via ANOVA, followed by a post-hoc Tukey test and t-tests with GraphPad PRISM. […]"}, "[3]": {"conditions": "over the sample bank of treated piglets"}}, "note": "“Also recorded” adds a separate entry of the source. Marks after values point to notes of the source that are not given here."}
{"molecule": "COc1ccc(NS(=O)(=O)c2ccc(N)cc2)nn1", "note": "[Sulfamethoxypyridazine, sulfamethoxypyridazine]", "values": [{"measurement": "half-life", "setting": "[1]; both sexes, intramuscular, pig blood serum, T1/2=Ln(2)/λz, read-out: T1/2 half-life of elimination (BLOOD) (converted)", "value": 13.2, "unit": "h"}, {"measurement": "Maximum concentration value in Blood", "setting": "[1]; [3]", "value": "4098.00 ± 201.34", "unit": "µg/kg"}, {"measurement": "Minimum concentration value in Blood", "setting": "[1]; [3]", "value": "23.67 ± 20.23", "unit": "µg/kg"}, {"measurement": "Slope (BLOOD)", "setting": "[1]; pig blood serum, regression of concentration over the withdrawal period, deep intramuscular treatment", "value": "−0.5496 ± 0.02589 ^a"}, {"measurement": "Concentration in blood compared to muscle", "setting": "[2]", "value": "three times higher in blood; also recorded: around three times higher"}]}
